Where a name gives a salt, the structure may show the parent alone.
Key:
Test in all cases: MIC against growth of bacteria by agar-dilution method
Type in all cases: cell-based
[1] = system: Serratia marcescens No. 1
Text: (§1) The compounds of this invention are all novel compounds.

[2] = system: Salmonella typhimurium LT-2; conditions: Salmonella enterica
Text: as §1

Proteus vulgaris GN 76 = conditions: GN76
Text: as §1

Proteus mirabillis GN 79 = system: Proteus mirabillis GN 79
Text: as §1

[3] = system: Klebsiella pneumoniae PCI 602; conditions: PCI602
Text: as §1

[4] = system: Pseudomonas aeruginosa MB 3833; conditions: MB3833
Text: as §1

[5] = system: Escherichia coli NIHJ JC-2; conditions: NIHJJC2
Text: as §1

Proteus rettgeri GN 624 = conditions: Providencia rettgeri, GN624
Text: as §1

[6] = system: Staphylococcus aureus 209P JC-1
Text: as §1

[7] = system: Staphylococcus aureus Smith
Text: as §1

| MIC [1] | MIC [2] | MIC (Proteus vulgaris GN 76) | MIC (Proteus mirabillis GN 79) | MIC [3] | MIC [4] | MIC [5] | MIC (Proteus rettgeri GN 624) | MIC [6] | MIC [7] | Compound |
| --- | --- | --- | --- | --- | --- | --- | --- | --- | --- | --- |
| 0.1 µg/mL | 0.39 µg/mL | 0.39 µg/mL | 0.2 µg/mL | 0.78 µg/mL | > 50 µg/mL | 0.78 µg/mL | ≤ 0.025 µg/mL | 3.13 µg/mL | 3.13 µg/mL | Cc1nnc(SCC2=C(C(=O)O)N3C(=O)C(NC(=O)/C(=C\C(=O)O)c4csc(N)n4)C3SC2)s1 (stereo not drawn) [Example 2, 7-[2-(2-aminothiazol-4-yl)-2-carboxymethylene-acetamido]-3-(5-methyl-1,3,4-thiadiazol-2-yl)thiomethyl-3-cephem-4-carboxylic acid (Z-isomer) trifluoroacetate] |
| 0.78 µg/mL | 0.39 µg/mL | 3.13 µg/mL | 1.56 µg/mL | 0.78 µg/mL | > 50 µg/mL | 0.39 µg/mL | 0.1 µg/mL | 0.2 µg/mL | 0.39 µg/mL | C[n+]1ccc(SCC2=C(C(=O)O)N3C(=O)C(NC(=O)/C(=C\C(=O)O)c4csc(N)n4)C3SC2)cc1 (stereo not drawn) [Example 7, 7-[2-(2-aminothiazol-4-yl)-2-carboxymethyleneacetamido]-3-(1-methylpyridinium-4-yl)thiomethyl-3-cephem-4-carboxylic acid (Z-isomer) trifluoroacetate] |
| 25 µg/mL | 12.5 µg/mL | > 50 µg/mL | 50 µg/mL | 25 µg/mL | > 50 µg/mL | 12.5 µg/mL | 3.13 µg/mL | 0.78 µg/mL | 0.78 µg/mL | C[n+]1ccc(SCC2=C(C(=O)O)N3C(=O)C(NC(=O)/C(=C/C(=O)O)c4csc(N)n4)C3SC2)cc1 (stereo not drawn) [Example 10, 7-[2-(2-aminothiazol-4-yl)-2-carboxymethylene-acetamido]-3-(1-methylpyridinium-4-yl)thiomethyl-3-cephem-4-carboxylic acid (E-isomer) trifluoroacetate] |

From patent publication US4791197A, “Cephalosporin compounds” (priority 1984, dated 1988)
